According to the METLIN SMRT retention time set (Domingo-Almenara et al. 2019):

Assay: gradient 5% acetonitrile 3 min, to 50% in 2 min, to 85% in 15 min, held 3 min, 100 µL/min
Details: column: Zorbax Extend-C18 2.1 x 50 mm; eluents: water / acetonitrile, 0.1% formic acid
Procedure, shortened: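 Pure standards were run in mixtures of ~100 molecules by HPLC coupled to a quadrupole time-of-flight mass spectrometer. The column was a Zorbax Extend-C18 (2.1 × 50 mm, 1.8 μm) at 100 μL/min, with water and acetonitrile each containing 0.1% formic acid, in positive and negative ionization mode. Dead and dwell volumes were 40 μL and 900 μL. Retention time was taken from computationally picked adduct peaks, each manually inspected, with data collected over 3 months.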

Row | SMILES | RP-LC retention time [s]
1 | Cc1nc(-c2cnccn2)nc2c1CCC(=O)N2Cc1cccnc1 | 556
2 | Cc1noc(C)c1S(=O)(=O)N1CCC(Cc2ccc(COc3ccncc3)cc2)CC1 | 831
3 | COc1cc(-c2cc(C(=O)O)c3cc4c(cc3n2)OCCO4)cc(OC)c1OC | 676
4 | O=C([C@@H]1C[C@H](F)CN1S(=O)(=O)c1cc(F)cc(F)c1)N1CCCCC1 | 837
5 | CCOC(=O)c1cc(-c2ccc(S(=O)(=O)N3CCN(c4ccccn4)CC3)s2)on1 | 809
6 | COc1cccc(-n2ccc(=O)c(-c3nc(-c4ccc5c(c4)OCO5)no3)n2)c1 | 799
7 | COc1ccc2c(c1)N(CC(C)CN(C)C)c1ccccc1S2 (stereo not drawn) | 804
8 | CCOC(=O)C1CCN(S(=O)(=O)c2c(C)nc3sc(C)nn23)CC1 | 804
9 | CCOC(=O)c1cnc2nc(C)ccc2c1Nc1ccc2c(c1)OCO2 | 680
10 | Cc1[nH]c(C(=O)N2CCC(CC(=O)N(C)Cc3ccco3)CC2)c(C)c1C(=O)OC(C)C | 798
11 | CCn1c(SC)nnc1-c1nn(C)c2c1CN(C(=O)c1cccn1C)CC2 | 684
12 | Cc1csc(-c2cc(S(=O)(=O)NC(C)(C)C)c(C)n2C)n1 | 914
13 | CCOc1ccc(S(=O)(=O)N2CCC(c3noc(-c4ccc(Cl)cc4)n3)CC2)cc1 | 1260
14 | COc1ccc(NC(=O)Cn2nc3n(c2=O)CCCCC3)cc1Cl | 692
15 | COc1cc(OC)c(NC(=O)Cn2ncc3c(c2=O)N(C)C(=O)CS3)cc1Cl | 695
16 | O=C(NC1CC1)[C@@H]1C[C@H](Oc2ccccc2)CN1C(=O)C1CCC1 | 735
17 | O=C1CCCc2cc(S(=O)(=O)NCC3CCN(Cc4ccccc4F)CC3)ccc2N1 | 596
18 | O=C(NCCC1CCN(C(=O)Nc2cc(F)cc(F)c2)CC1)c1ccco1 | 798
19 | COc1ccc(C(=O)N2CCC3(CC2)N=C(c2ccc(Br)cc2)C(=O)N3)cc1 | 889

Row | SMILES | RP-LC retention time [s]
20 | O=C(c1cnccn1)N1CCN(c2ccc(-n3cccn3)nn2)CC1 | 580
21 | COc1ccc(OC)c2sc(NC(=O)C3CCCCN3S(C)(=O)=O)nc12 (stereo not drawn) | 793
22 | COC(=O)c1ccc(CSc2nnc(C(C)C)c3cnn(-c4ccc(F)cc4)c23)o1 | 840
23 | CCOc1cc(-c2noc(-c3ncn4c3COC(c3ccc(OC)cc3)C4)n2)ccc1OC (stereo not drawn) | 992
24 | Cn1nc(N2CCCC(NC(=O)c3cccs3)C2)ccc1=O (stereo not drawn) | 627
25 | Cc1ccc(S(=O)(=O)Cc2nc(-c3ccc4c(c3)OCO4)no2)cc1 | 951
26 | Cc1ccc(CNS(=O)(=O)c2c(-c3nnc(C)o3)c(C)n(C)c2C)o1 | 780
27 | CN(C)C(CNC(=O)C(=O)NCCC1=CCCCC1)c1ccsc1 (stereo not drawn) | 590
28 | Cc1ccc(-c2noc(Cn3ccn4nc(-c5ccc6c(c5)OCO6)cc4c3=O)n2)cc1 | 1050
29 | Cc1cc2nc(C(F)(F)F)c(=O)n(C(C)C(=O)NCCCN3CCN(C)CC3)c2cc1C (stereo not drawn) | 652
30 | COc1ccc(-n2nnc(C(=O)O)c2-c2ccncc2)cc1 | 592
31 | Cc1scc2nc(C3CCC3)nc(N3CCC(C(=O)N4CCN(c5ccccn5)CC4)CC3)c12 | 587
32 | COc1ccc(-c2nc3cc(C)ccn3c2NC(=O)c2cccc(C(F)(F)F)c2)cc1OC | 729
33 | O=C(c1cc(-c2ccncc2)n[nH]1)N1CCC(C(=O)N2CCN(C(=O)c3ccco3)CC2)CC1 | 566
34 | Cc1cc(NC(=O)C2CCN(C(=O)c3cc(-c4ccc5c(c4)OCO5)n[nH]3)CC2)no1 | 671
35 | COCCNC(=O)CN1CCN(c2cc(C(=O)O)c3cc(NC(=O)C(C)(C)C)ccc3n2)CC1 | 561
36 | CCN1C(=O)c2c(C(=O)NCc3ccccc3Cl)ncn2CC1(C)C(=O)NC1CCCC1 (stereo not drawn) | 779
37 | Cc1ccc(-c2cc3c(=O)n(Cc4noc(CN5CCCC(C)C5)n4)ccn3n2)cc1 (stereo not drawn) | 705
38 | CCOC(=O)c1c(C)[nH]c(C(=O)N2CCCC(C(=O)NCCc3ccco3)C2)c1C (stereo not drawn) | 781

Row | SMILES | RP-LC retention time [s]
39 | O=C(Cc1ccc(F)cc1)N1CCN(C(=O)c2nnn3c2COC(c2ccc(F)cc2)C3)CC1 (stereo not drawn) | 861
40 | COC(=O)CN1CN(c2ccccc2)C2(CCN(Cc3cccc4ccccc34)CC2)C1=O | 729
41 | O=C(NCc1ccc(-c2noc(-c3cc(F)cc(F)c3)n2)s1)C1CC1 | 952
42 | CNC(=O)N1CCC(C2CCN(C(=O)CSC)C2)CC1 (stereo not drawn) | 608
43 | CCN1CCN(Cc2nc(-c3ccc(N4CCCC(C)C4)nc3)no2)CC1 (stereo not drawn) | 610
44 | CSc1cccc(NC(=O)C2CCN(C(=O)c3ncn4c3COC(c3ccc(F)cc3)C4)CC2)c1 (stereo not drawn) | 849
45 | CCCNC(=O)C1CCN(c2ccc(SCC(=O)Nc3ccc(Cl)cc3)nn2)CC1 | 655
46 | CC(=O)N1CCC2(CC1)CC(CC(=O)NCc1ccc(C)o1)CCO2 (stereo not drawn) | 625
47 | CCOc1ccccc1CN1C[C@@H]2C(=O)N(Cc3ccc4c(c3)OCO4)C(=O)[C@@H]2C1 | 727
48 | CCOc1ccc(-c2noc(N3CCC(C(=O)Nc4cc(Cl)ccc4OC)CC3)n2)cc1OC | 1090
49 | CSc1ccc(-c2nc3cccc(C)n3c2Nc2ccc3c(c2)OCCO3)cc1 | 719
50 | CCn1cc(CCNC(=O)c2cncc(Br)c2)c2cccnc21 | 699
51 | C=CCN1CCN(c2nc3cc(C(=O)OC)ccc3c(=O)n2-c2ccc(F)c(Cl)c2)CC1 | 699
52 | Cc1cccc2nnc(N3CCN(C(=O)c4ccsc4)CC3)n12 | 614
53 | CCOC1CCN(C(=O)c2ccc(F)cc2)CC1 | 760
54 | CCc1c(C2CCN(C(=O)c3ccc(OC)nc3)CC2)noc1N | 663
55 | Cc1ccc2c(c1)N(S(C)(=O)=O)CC(C)O2 (stereo not drawn) | 620
56 | Cc1cc(=O)n(CCOc2ccc(F)cc2)c(N2CCSCC2)n1 | 898
57 | CNC(=O)c1ccc(-n2cccc2)nc1 | 645

Next, values leading:

Row | RP-LC retention time [s] | SMILES
58 | 1040 | Cc1ccccc1-c1noc(CN2C(=O)COc3ccccc32)n1
59 | 957 | Cc1noc(C)c1-c1ccc(S(=O)(=O)NCCc2ccccc2)cc1
60 | 738 | CCc1ccc(C2=C(C)C(N3CCC(C(=O)NC)CC3)=NS2(=O)=O)cc1
61 | 888 | O=C(NCCc1ccccc1)c1nc(Cn2c(=O)oc3ccccc32)no1
62 | 871 | CCOc1ccccc1NC(=O)N1CCc2nc(OCCOC)ccc2C1
63 | 992 | O=C(NCc1ccc2c(c1)OCO2)C1CCCN(c2ncc(-c3ccccc3)cn2)C1 (stereo not drawn)
64 | 1130 | CCCn1ccc2oc(C)c(C(=O)NCc3cccc(Br)c3)c2c1=O
65 | 718 | Cc1nc2cc(N3CC(C(=O)Nc4ccc(F)cc4C)CC3=O)ccc2o1 (stereo not drawn)
66 | 755 | Cn1nccc1C(=O)N1CCC(c2noc(-c3ccccc3)n2)C1 (stereo not drawn)
67 | 896 | Cc1csc(-c2ccc(N3CCN(C(=O)Cc4cccc(Cl)c4)CC3)nc2)n1
68 | 851 | CCCN1C(=O)c2c(C(=O)NCc3cccc(C)c3)ncn2CC1(C)C(=O)NC1CCCC1 (stereo not drawn)
69 | 927 | CC(C)NC(=O)c1ccccc1OCC1CCN(C(=O)c2cc(F)cc(F)c2)CC1
70 | 745 | COc1ccc(CCNS(=O)(=O)c2cccc3cccnc23)cc1OC
71 | 663 | COc1cccc(C(O)CN2CCN(c3cccc(C)c3)CC2)c1 (stereo not drawn)
72 | 561 | CCCn1cc(-c2ccncc2)cc1C(=O)NC1CCN(Cc2ccccc2)CC1
73 | 756 | CCOC(=O)c1ccccc1NC(=O)N(Cc1cccs1)C1CCN(CC)CC1

Row | RP-LC retention time [s] | SMILES
74 | 695 | COCCNC(=O)C(C)n1nc(C)c2c(C)n(-c3ccccc3)nc2c1=O (stereo not drawn)
75 | 628 | COc1cn(CC(=O)Nc2ccccc2C)c(CSc2nc(C)cs2)cc1=O
76 | 710 | O=C(c1ccc(CN2C(=O)CSc3ncccc32)cc1)N1CCN(c2ccccn2)CC1
77 | 895 | Cc1cc(C2CCCN2C(=O)Nc2ccccc2C(F)(F)F)no1 (stereo not drawn)
78 | 878 | CN(C)S(=O)(=O)c1ccc(-c2nnc(C(=O)NCc3cc(F)cc(F)c3)o2)cc1
79 | 784 | Cc1nnc(N2CCCC(C(=O)NCCc3ccc(Cl)cc3)C2)c2nn(-c3ccccc3)c(C)c12 (stereo not drawn)
80 | 765 | CN1C(=O)c2cccnc2Sc2cc(C(=O)NCc3ccc(F)cc3)ccc21
81 | 582 | CCOc1ccc(N2C(=O)Nc3ccccc3C2(O)C(=O)NCCCN2CCC(C)CC2)cc1 (stereo not drawn)
82 | 665 | CCOc1ccc(NC(=O)c2cc(=O)c3cc(Cl)ccc3o2)c2cccnc12
83 | 748 | Cc1cccc(CNC(=O)C2c3ccccc3CC(=O)N2C)c1 (stereo not drawn)
84 | 1070 | O=C(Nc1ccc(-c2nc(-c3ccccc3)no2)cc1)C1CC(=O)N(C2CCCCC2)C1 (stereo not drawn)
85 | 649 | CCOc1ccc(C2C(C(=O)O)c3ccccc3C(=O)N2CCN2CCOCC2)cc1 (stereo not drawn)
86 | 868 | CCc1ccc(NC(=O)C2CCCN2S(=O)(=O)c2cc3c(cc2Cl)NC(=O)CO3)cc1 (stereo not drawn)
87 | 712 | C[C@@H]1CN(CCCn2c3ccccc3c3ccccc32)C[C@H](C)N1
88 | 768 | CN1C(=O)c2cc(C(=O)NCCc3ccccc3)nn2CC1(C)C(=O)NCc1ccc(F)cc1 (stereo not drawn)
